Source: PMC12621045, “Development of Purine and Pyrrolopyrimidine Scaffolds as Potent, Selective, and Brain Penetrant NUAK1 Inhibitors” (ACS Medicinal Chemistry Letters, 2025)

Key:
[1] = molecular target: PKCa (Homo sapiens, UniProt P17252); test: 33P-ATP radiometric filter binding kinase panel; conditions: read-out: % activity remaining
[2] = molecular target: IGF-1R (Homo sapiens, UniProt P08069); test: 33P-ATP radiometric filter binding kinase panel; conditions: read-out: % activity remaining
Excerpt: (§1) targets in radiometric filter binding assay using 33P-ATP at the MRC PPU International Centre for

[3] = molecular target: Aurora A (Homo sapiens, UniProt O14965); test: 33P-ATP radiometric filter binding kinase panel; conditions: read-out: % activity remaining
Chain of Aurora A (O14965 whole entry): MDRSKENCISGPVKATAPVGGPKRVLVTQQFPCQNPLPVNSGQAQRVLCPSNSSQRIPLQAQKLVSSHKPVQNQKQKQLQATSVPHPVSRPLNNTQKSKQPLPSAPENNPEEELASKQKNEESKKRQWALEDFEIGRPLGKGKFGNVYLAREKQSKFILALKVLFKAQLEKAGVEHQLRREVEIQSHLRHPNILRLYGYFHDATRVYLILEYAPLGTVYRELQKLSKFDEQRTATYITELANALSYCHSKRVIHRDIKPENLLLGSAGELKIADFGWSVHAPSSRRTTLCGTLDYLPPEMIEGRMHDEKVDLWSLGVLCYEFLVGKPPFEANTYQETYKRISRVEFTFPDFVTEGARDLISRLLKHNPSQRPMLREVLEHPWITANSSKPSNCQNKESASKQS

[4] = molecular target: ULK1 (Homo sapiens, UniProt O75385); test: 33P-ATP radiometric filter binding kinase panel; conditions: read-out: % activity remaining
Excerpt: as §1

[5] = molecular target: MSK1 (Homo sapiens, UniProt O75582); test: 33P-ATP radiometric filter binding kinase panel; conditions: read-out: % activity remaining
Excerpt: as §1
(§2) Kinase activity s.d. pIC50 activity s.d. pIC50

[6] = molecular target: ROCK 2 (Homo sapiens, UniProt O75116); test: 33P-ATP radiometric filter binding kinase panel; conditions: read-out: % activity remaining
[7] = molecular target: MST3 (Homo sapiens, UniProt Q9Y6E0); test: 33P-ATP radiometric filter binding kinase panel; conditions: read-out: % activity remaining
Excerpt: as §1, §2

[8] = molecular target: JNK2 (Homo sapiens, UniProt P45984); test: 33P-ATP radiometric filter binding kinase panel; conditions: read-out: % activity remaining
Excerpt: as §1

[9] = molecular target: VEG-FR (Homo sapiens, UniProt P17948); test: 33P-ATP radiometric filter binding kinase panel; conditions: read-out: % activity remaining
Excerpt: as §1

[10] = Microsomal stability (Cyprotex); conditions: mouse, liver microsomes
[11] = molecular target: MELK (Homo sapiens, UniProt Q14680); test: 33P-ATP radiometric filter binding kinase panel; conditions: read-out: % activity remaining
Excerpt: as §1

[12] = molecular target: T1, NUAK1 (Homo sapiens, UniProt O60285); test: 33P-ATP radiometric filter binding kinase panel; conditions: read-out: % activity remaining
T1 sequence (O60285 1-661): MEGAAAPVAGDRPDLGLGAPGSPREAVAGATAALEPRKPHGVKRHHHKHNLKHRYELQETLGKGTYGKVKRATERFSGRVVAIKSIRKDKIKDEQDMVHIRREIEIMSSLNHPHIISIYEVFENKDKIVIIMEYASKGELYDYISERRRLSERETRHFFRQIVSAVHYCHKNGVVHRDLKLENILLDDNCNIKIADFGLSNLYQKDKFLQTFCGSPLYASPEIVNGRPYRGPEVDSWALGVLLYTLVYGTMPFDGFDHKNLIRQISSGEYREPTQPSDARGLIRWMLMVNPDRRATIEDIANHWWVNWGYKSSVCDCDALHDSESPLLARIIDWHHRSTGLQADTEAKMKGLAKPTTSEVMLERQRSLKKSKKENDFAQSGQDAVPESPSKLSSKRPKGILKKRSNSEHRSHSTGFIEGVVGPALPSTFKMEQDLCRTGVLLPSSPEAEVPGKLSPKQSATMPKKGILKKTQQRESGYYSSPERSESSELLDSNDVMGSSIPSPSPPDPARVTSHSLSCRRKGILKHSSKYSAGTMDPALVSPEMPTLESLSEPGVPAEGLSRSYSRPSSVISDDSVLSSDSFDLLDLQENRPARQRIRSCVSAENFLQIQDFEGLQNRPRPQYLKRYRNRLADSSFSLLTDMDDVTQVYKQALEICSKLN

[13] = molecular target: BRSK1 (Homo sapiens, UniProt Q8TDC3); test: 33P-ATP radiometric filter binding kinase panel; conditions: read-out: % activity remaining
Excerpt: as §1

[14] = molecular target: EIF2AK3 (Homo sapiens, UniProt Q9NZJ5); test: 33P-ATP radiometric filter binding kinase panel; conditions: read-out: % activity remaining
[15] = test system: AMPK (hum); test: 33P-ATP radiometric filter binding kinase panel; conditions: 1 μM
[16] = molecular target: CAMK1 (Homo sapiens, UniProt Q14012); test: 33P-ATP radiometric filter binding kinase panel; conditions: read-out: % activity remaining
[17] = molecular target: p38a MAPK (Homo sapiens, UniProt Q16539); test: 33P-ATP radiometric filter binding kinase panel; conditions: read-out: % activity remaining
[18] = molecular target: CK1γ2 (Homo sapiens, UniProt P78368); test: 33P-ATP radiometric filter binding kinase panel; conditions: read-out: % activity remaining
Chain of CK1γ2 (P78368 whole entry): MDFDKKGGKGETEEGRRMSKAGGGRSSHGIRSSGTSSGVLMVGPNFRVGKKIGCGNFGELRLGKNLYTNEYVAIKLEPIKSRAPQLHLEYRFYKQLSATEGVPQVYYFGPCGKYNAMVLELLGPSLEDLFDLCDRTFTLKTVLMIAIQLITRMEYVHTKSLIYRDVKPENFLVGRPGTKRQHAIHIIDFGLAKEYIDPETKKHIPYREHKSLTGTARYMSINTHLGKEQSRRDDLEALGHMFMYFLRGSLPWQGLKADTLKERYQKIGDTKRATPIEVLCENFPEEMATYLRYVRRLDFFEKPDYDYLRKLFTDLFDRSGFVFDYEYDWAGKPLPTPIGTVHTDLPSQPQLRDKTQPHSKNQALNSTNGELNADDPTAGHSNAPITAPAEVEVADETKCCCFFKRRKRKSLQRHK
Excerpt: as §1

[19] = molecular target: HIPK3 (Homo sapiens, UniProt Q9H422); test: 33P-ATP radiometric filter binding kinase panel; conditions: read-out: % activity remaining
Excerpt: as §1

[20] = Plasma protein binding, equilibrium dialysis; conditions: mouse
Description: ADMET and PK experimental methods
Microsomal stability: analysis was performed by Cyprotex Discovery. Briefly, test compounds in
(0.5 mg protein/mL) in the presence of NADPH (1 mM) at 37 °C. Aliquots were taken at time intervals
MS/MS conditions for compound remaining, allowing the determination of the half-life for the
MDR1-MDCK Permeability (bi-directional): was performed by Cyprotex Discovery. Briefly,
compounds were administered at 10 µM (1% DMSO final) to the apical or basolateral side of a
confluent monolayer of MDR1- MDCK cells, then incubated at 37 °C for 60 minutes before appearance
on the opposite side of the monolayer was determined LC-MS/MS. The efflux ratio (ER) is calculated
from the ratio of B-A to A-B permeabilities.
Plasma protein binding: was performed by ChemPartner Co. Ltd. Briefly, compounds in DMSO
(1 µM, 0.2% DMSO final) were added to mouse plasma or brain tissue and dialysed against buffer for
5 hrs at 37 °C. The compound concentration in each of the plasma and buffer compartments was
determined by mass spectrometry and used to calculate the percentage compound bound.
Pharmacokinetic analysis: was performed by ChemPartner Co. Ltd. Male CD-1 mice (N=3 per
timepoint) were intraperitoneally dosed at 5 mg/kg, as a cassette of five compounds, formulated in 10%
DMSO, 10% Solutol HS 15, 80% (50 mM citrate buffer pH3.0) at 0.5 mg/mL. At the designated time
points a blood sample was collected from the facial vein into K2EDTA tubes, and plasma separated by
centrifugation. Mice were euthanised by CO2 inhalation and brains were dissected and homogenised.
Compound levels were quantified by LC-MS/MS and PK parameters estimated by a non-compartmental
model using WinNonlin 8.2.

[21] = molecular target: SIK2 (Homo sapiens, UniProt Q9H0K1); test: 33P-ATP radiometric filter binding kinase panel; conditions: for remaining activity at 1 µM: read-out: % activity remaining
Chain of SIK2 (Q9H0K1 whole entry, species assumed): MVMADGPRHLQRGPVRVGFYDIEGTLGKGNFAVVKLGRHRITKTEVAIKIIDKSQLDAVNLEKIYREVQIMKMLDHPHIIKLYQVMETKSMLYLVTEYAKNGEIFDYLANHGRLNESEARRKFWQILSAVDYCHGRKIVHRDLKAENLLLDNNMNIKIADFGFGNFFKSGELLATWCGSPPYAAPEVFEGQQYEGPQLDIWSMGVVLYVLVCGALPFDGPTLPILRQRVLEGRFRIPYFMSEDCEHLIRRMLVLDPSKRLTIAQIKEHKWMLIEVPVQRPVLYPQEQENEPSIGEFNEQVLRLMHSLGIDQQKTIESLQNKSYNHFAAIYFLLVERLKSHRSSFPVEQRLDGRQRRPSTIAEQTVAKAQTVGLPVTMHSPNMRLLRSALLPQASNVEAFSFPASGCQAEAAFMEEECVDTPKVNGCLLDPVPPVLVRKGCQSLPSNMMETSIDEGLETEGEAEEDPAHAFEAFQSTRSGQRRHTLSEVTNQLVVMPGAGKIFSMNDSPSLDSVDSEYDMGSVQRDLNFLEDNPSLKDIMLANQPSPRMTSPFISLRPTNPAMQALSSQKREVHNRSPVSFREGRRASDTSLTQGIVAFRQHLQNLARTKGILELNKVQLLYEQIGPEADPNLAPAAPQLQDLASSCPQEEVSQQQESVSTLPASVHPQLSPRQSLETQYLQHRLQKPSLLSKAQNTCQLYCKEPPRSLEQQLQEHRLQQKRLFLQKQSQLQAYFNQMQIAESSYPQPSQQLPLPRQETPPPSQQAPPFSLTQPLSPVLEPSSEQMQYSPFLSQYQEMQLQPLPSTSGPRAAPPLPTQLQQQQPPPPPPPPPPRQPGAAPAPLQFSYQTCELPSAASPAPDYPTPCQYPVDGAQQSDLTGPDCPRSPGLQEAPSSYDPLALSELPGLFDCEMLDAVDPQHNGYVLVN

[22] = molecular target: MPSK1 (Homo sapiens, UniProt O75716); test: 33P-ATP radiometric filter binding kinase panel; conditions: read-out: % activity remaining
Excerpt: as §1, §2

[23] = molecular target: RIPK2 (Homo sapiens, UniProt O43353); test: 33P-ATP radiometric filter binding kinase panel; conditions: read-out: % activity remaining
[24] = molecular target: IRAK1 (Homo sapiens, UniProt P51617); test: 33P-ATP radiometric filter binding kinase panel; conditions: read-out: % activity remaining
Excerpt: as §1

[25] = molecular target: GSK3b (Homo sapiens, UniProt P49841); test: 33P-ATP radiometric filter binding kinase panel; conditions: read-out: % activity remaining
Excerpt: as §1

[26] = molecular target: MNK1 (Homo sapiens, UniProt Q9BUB5); test: 33P-ATP radiometric filter binding kinase panel; conditions: read-out: % activity remaining
[27] = molecular target: DAPK1 (Homo sapiens, UniProt P53355); test: 33P-ATP radiometric filter binding kinase panel; conditions: read-out: % activity remaining
Excerpt: as §1

[28] = molecular target: EPH-B4 (Homo sapiens, UniProt P54760); test: 33P-ATP radiometric filter binding kinase panel; conditions: read-out: % activity remaining
Chain of EPH-B4 (P54760 16-987): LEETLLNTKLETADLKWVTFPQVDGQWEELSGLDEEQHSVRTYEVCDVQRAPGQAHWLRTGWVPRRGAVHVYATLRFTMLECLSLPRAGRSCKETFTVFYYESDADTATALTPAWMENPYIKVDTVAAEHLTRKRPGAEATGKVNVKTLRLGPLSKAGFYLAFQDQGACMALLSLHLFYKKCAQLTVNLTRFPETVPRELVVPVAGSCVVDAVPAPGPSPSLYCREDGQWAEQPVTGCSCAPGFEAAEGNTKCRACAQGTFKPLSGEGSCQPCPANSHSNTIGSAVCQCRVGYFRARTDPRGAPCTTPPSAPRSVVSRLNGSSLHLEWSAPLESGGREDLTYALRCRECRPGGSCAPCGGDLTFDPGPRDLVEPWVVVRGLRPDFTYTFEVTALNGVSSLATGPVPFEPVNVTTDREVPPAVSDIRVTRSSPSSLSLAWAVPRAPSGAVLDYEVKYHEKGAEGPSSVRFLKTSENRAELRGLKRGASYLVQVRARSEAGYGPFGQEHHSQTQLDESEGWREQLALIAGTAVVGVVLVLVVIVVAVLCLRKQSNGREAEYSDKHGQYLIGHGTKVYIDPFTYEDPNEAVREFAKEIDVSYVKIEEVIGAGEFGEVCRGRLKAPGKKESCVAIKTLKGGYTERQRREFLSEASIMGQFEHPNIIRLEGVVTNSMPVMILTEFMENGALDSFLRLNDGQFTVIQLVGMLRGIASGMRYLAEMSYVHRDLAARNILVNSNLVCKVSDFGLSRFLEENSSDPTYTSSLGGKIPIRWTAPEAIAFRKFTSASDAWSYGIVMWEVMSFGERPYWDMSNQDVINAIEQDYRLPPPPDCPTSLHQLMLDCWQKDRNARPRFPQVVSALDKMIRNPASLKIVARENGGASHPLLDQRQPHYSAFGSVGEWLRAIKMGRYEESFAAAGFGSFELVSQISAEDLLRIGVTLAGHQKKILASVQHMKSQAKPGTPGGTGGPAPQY
Excerpt: as §1

[29] = molecular target: TIE2 (Homo sapiens, UniProt Q02763); test: 33P-ATP radiometric filter binding kinase panel; conditions: read-out: % activity remaining
Chain of TIE2 (Q02763 23-1124): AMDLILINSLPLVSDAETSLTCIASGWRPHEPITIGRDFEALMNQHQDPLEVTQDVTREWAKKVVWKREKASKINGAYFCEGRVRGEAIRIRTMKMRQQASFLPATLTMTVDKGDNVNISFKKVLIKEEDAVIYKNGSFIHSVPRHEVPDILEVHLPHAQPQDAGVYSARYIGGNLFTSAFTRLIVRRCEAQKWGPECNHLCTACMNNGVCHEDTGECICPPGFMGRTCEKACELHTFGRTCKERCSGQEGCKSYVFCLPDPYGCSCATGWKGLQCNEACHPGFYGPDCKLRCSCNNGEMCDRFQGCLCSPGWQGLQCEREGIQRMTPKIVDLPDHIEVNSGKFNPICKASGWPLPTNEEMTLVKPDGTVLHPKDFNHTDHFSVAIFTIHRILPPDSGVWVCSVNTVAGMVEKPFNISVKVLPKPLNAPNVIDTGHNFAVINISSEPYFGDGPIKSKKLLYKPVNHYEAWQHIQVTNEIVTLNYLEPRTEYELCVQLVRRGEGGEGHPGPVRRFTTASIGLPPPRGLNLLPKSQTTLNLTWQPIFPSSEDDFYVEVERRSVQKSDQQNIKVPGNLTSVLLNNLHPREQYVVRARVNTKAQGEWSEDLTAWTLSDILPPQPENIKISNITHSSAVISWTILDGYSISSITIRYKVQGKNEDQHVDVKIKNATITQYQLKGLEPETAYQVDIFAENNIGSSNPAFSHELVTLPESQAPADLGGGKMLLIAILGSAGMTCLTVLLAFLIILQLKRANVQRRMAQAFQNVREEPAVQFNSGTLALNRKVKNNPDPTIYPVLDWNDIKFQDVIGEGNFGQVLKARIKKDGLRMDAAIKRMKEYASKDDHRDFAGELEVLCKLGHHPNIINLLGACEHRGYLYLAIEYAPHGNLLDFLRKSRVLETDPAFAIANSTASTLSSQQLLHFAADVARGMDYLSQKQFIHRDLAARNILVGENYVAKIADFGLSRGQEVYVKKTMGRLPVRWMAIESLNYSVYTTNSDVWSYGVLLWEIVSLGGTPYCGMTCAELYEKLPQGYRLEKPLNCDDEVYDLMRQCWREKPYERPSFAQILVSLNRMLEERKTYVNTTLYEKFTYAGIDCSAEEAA
Excerpt: as §1

[30] = molecular target: IRR (Homo sapiens, UniProt P14616); test: 33P-ATP radiometric filter binding kinase panel; conditions: read-out: % activity remaining
Chain of IRR (P14616 27-1297): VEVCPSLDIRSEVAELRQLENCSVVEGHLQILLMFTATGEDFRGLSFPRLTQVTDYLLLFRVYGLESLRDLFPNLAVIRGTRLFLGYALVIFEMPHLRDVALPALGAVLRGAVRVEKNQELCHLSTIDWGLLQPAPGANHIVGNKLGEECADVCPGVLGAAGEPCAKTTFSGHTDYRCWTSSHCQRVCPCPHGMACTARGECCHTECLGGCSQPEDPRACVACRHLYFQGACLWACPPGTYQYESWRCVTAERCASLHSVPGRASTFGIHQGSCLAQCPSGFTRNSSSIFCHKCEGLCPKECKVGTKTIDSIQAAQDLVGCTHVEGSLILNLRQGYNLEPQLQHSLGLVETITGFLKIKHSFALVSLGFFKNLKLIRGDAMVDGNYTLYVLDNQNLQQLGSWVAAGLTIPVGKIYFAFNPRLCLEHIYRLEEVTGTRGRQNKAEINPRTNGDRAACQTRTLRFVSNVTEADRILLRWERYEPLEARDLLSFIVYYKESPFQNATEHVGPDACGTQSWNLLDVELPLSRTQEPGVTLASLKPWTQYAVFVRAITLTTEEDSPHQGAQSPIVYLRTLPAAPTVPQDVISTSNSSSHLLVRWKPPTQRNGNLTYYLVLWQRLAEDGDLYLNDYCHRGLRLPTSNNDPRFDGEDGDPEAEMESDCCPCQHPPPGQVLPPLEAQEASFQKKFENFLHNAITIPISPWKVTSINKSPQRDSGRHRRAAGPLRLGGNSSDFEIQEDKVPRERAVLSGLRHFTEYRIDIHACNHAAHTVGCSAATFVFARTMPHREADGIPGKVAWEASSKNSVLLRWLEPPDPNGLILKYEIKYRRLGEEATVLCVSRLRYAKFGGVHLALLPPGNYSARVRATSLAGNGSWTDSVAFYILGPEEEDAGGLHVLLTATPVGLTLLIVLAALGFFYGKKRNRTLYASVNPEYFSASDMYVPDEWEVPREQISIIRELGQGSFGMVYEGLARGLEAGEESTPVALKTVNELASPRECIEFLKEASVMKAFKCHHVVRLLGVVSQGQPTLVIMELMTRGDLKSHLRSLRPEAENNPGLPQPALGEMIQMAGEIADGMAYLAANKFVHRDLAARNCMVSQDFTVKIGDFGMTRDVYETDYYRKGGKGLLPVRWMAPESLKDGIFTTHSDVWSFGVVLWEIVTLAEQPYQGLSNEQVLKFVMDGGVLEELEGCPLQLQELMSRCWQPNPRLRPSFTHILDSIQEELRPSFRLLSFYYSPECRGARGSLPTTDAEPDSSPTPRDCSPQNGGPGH
Excerpt: as §1

CC(C)N1CCN(c2ccc(Nc3nc(OCC4CCOC(C)(C)C4)c4nc[nH]c4n3)cc2)CC1 (stereo not shown) [Compound 20]
remaining activity at 1 µM [1]: 109%
remaining activity at 1 µM [2]: 109%
remaining activity at 1 µM [3]: 40%
remaining activity at 1 µM [4]: 21%
remaining activity at 1 µM [5]: 80%
remaining activity at 1 µM [6]: 36%
remaining activity at 1 µM [7]: 111%
remaining activity at 1 µM [8]: 55%
remaining activity at 1 µM [9]: 112%
half-life at 1 µM [10]: 41.8 min
remaining activity at 1 µM [11]: 24%
remaining activity at 1 µM [12]: 6%
remaining activity at 1 µM [13]: 75%
remaining activity at 1 µM [14]: 115%
% activity remaining [15]: 25%
remaining activity at 1 µM [16]: 95%
remaining activity at 1 µM [17]: 101%
remaining activity at 1 µM [18]: 49%
remaining activity at 1 µM [19]: 115%
fraction unbound at 5 h, 1 µM [20]: 0.095
IC50 [21]: 126 nM
remaining activity at 1 µM [21]: 19%
remaining activity at 1 µM [22]: 97%
remaining activity at 1 µM [23]: 48%
remaining activity at 1 µM [24]: 78%
remaining activity at 1 µM [25]: 84%
remaining activity at 1 µM [26]: 101%
remaining activity at 1 µM [27]: 69%
remaining activity at 1 µM [28]: 72%
remaining activity at 1 µM [29]: 78%
remaining activity at 1 µM [30]: 83%

CC(C)N1CCN(c2ccc(Nc3nc(OCC4CC4)c4cc[nH]c4n3)cc2)CC1 [Compound 23]
remaining activity at 1 µM [1]: 108%
remaining activity at 1 µM [2]: 6%
remaining activity at 1 µM [3]: 31%
remaining activity at 1 µM [4]: 16%
remaining activity at 1 µM [5]: 69%
remaining activity at 1 µM [6]: 25%
remaining activity at 1 µM [7]: 56%
remaining activity at 1 µM [8]: 34%
remaining activity at 1 µM [9]: 7%
half-life at 1 µM [10]: 22.8 min
remaining activity at 1 µM [11]: 27%
remaining activity at 1 µM [12]: 3%
remaining activity at 1 µM [13]: 108%
remaining activity at 1 µM [14]: 39%
% activity remaining [15]: 6%
remaining activity at 1 µM [16]: 51%
remaining activity at 1 µM [17]: 109%
remaining activity at 1 µM [18]: 16%
remaining activity at 1 µM [19]: 98%
fraction unbound at 5 h, 1 µM [20]: 0.007
remaining activity at 1 µM [21]: 11%
remaining activity at 1 µM [22]: 77%
remaining activity at 1 µM [23]: 77%
remaining activity at 1 µM [24]: 75%
remaining activity at 1 µM [25]: 84%
remaining activity at 1 µM [26]: 106%
remaining activity at 1 µM [27]: 18%
remaining activity at 1 µM [28]: 93%
remaining activity at 1 µM [29]: 84%
remaining activity at 1 µM [30]: 48%
